Source: US9278915B2, “Agonists of GPR40” (CONNEXIOS LIFE SCIENCES PVT LTD, priority 2010, dated 2016)
pEC50: −log10 of the molar value.

The compounds below were run against T1, hGPR40 (Homo sapiens, UniProt O14842) (assay: Calcium flux assay to detect GPR40 activation). Conditions: CHO-K cells stably expressing hGPR40; Fluo-4 NW; read for 4 min at 5 s intervals.
T1 construct: expressed in transfected cells
Format: cell-based
Protocol: Biological Activity Calium Flux Assay to Detect GPR40 Activation: CHO-K cells stably expressing hGPR40 were selected in a media containing Neomycin/G418. The cells were plated at a concentration of 20,000 cells per well in black 96-well clear bottom tissue culture treated plates. The cells were cultured for 24 h at 37° C. in a humidified 5% CO2 air environment to allow for protein expression. The next day, after removal of media from wells, Fluo-4 NW (Invitrogen) is added at 100 ul/well and the cells were incubated for 30 min at 37° C. and for a further 30 min at RT. All test compounds were diluted to appropriate concentrations in HEPES buffer. Compounds were added to the cells and the wells were read in the BioTEK synergy reader and readings were taken for 4 min with an interval of 5 s.

T1 sequence (O14842 whole entry): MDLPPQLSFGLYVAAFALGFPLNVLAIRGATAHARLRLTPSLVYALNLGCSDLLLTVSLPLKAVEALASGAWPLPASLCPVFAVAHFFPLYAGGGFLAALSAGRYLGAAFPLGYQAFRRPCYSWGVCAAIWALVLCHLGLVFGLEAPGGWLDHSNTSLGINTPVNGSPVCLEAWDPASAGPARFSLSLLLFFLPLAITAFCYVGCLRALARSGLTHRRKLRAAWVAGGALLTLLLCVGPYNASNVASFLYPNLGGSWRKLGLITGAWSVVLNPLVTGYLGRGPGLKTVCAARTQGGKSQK

SMILES	pEC50
CO/N=C(/COc1ccc(COc2ccc(C(C#N)CC(=O)O)cc2)cc1)c1ccc(C#N)cc1 (racemic) [Compound 33, 3-Cyano-3-{4-[(4-{[(2E,2Z)-2-(4-cyanophenyl)-2-(methoxyimino)ethyl]oxy}benzyl)oxy]phenyl}propanoic acid]	> 8.00
CO/N=C(\COc1ccc(COc2ccc(C(C#N)CC(=O)O)cc2)cc1)c1ccc(F)cc1 (stereo not shown) [Compound 34, 3-Cyano-3-{4-[(4-{[(2Z)-2-(4-fluorophenyl)-2-(methoxyimino)ethyl]oxy}benzyl)oxy]phenyl}propanoic acid]	> 8.00
CON=C(COc1ccc(COc2ccc(C(C#N)CC(=O)O)cc2)cc1)c1ccc(C#N)cc1 (mixture of isomers) [Compound 49, Sodium 3-cyano-3-{4-[(4-{[(2E,2Z)-2-(4-cyanophenyl)-2-(methoxyimino)ethyl]oxy}benzyl)oxy]phenyl}propanoate]	> 8.00
CO/N=C(/c1ccccc1)c1cccc(CNc2ccc(CCC(=O)O)cc2)c1 [Compound 2, 3-[4-({3-[(E,Z)-(Methoxyimino)(phenyl)methyl]benzyl}amino)phenyl]propanoic acid]	7.00 to 8.00
CO/N=C(\COc1ccc(CNc2ccc(CCC(=O)O)cc2)cc1)c1ccccc1C [Compound 6, 3-{4-[(4-{[(2Z)-2-(Methoxyimino)-2-(2-methylphenyl)ethyl]oxy}benzyl)amino]phenyl}propanoic acid]	7.00 to 8.00
CO/N=C(\COc1ccc(COc2ccc(C3CC3C(=O)O)cc2)cc1)c1ccc(OC)cc1 (stereo not shown) [Compound 46, 2-{4-[(4-{[(2Z)-2-(Methoxyimino)-2-(4-methoxyphenyl)ethyl]oxy}benzyl)oxy]phenyl}cyclopropanecarboxylic acid]	7.00 to 8.00
CO/N=C(\COc1ccc(COc2ccc(C(CC(=O)O)c3ccon3)cc2)cc1)c1ccccc1 (stereo not shown) [Compound 17, 3-{4-[(4-{[(2Z)-2-(methoxyimino)-2-phenylethyl]oxy}benzyl)oxy]phenyl}-3-(1,2-oxazol-3-yl)propanoic acid]	7.00 to 8.00
CO/N=C(\COc1ccc(COc2ccc(C(C#N)CC(=O)O)cc2)cc1)c1cccc(F)c1 (stereo not shown) [Compound 35, 3-Cyano-3-{4-[(4-{[(2Z)-2-(3-fluorophenyl)-2-(methoxyimino)ethyl]oxy}benzyl)oxy]phenyl}propanoic acid]	7.00 to 8.00
CO/N=C(/c1ccccc1)c1cccc(COc2ccc(C(C#N)CC(=O)O)cc2)c1 (stereo not shown) [Compound 12, 3-Cyano-3-[4-({3-[(E,Z)-(methoxyimino)(phenyl)methyl]benzyl}oxy)phenyl]propanoic acid]	< 7.00
CC(C)O/N=C(/c1ccccc1)c1cccc(CNc2ccc(CCC(=O)O)cc2)c1 [Compound 10, 3-{4-[(3-{(E,Z)-Phenyl[(propan-2-yloxy)imino]methyl}benzyl)amino]phenyl}propanoic acid]	< 7.00
CO/N=C(/c1ccccc1)c1ccc(CNc2ccc(CCC(=O)O)cc2)cc1 [Compound 3, 3-[4-({4-[(E,Z)-(Methoxyimino)(phenyl)methyl]benzyl}amino)phenyl]propanoic acid]	< 7.00

Continued, values first:

pEC50	SMILES
< 7.00	CO/N=C(\COc1ccc(COc2ccc(C(C#N)CC(=O)O)cc2)cc1)c1ccccc1 (single isomer, unassigned; (+)) [Compound 74, (+)-3-Cyano-3-{4-[(4-{[(2Z)-2-(methoxyimino)-2-phenylethyl]oxy}benzyl)oxy]phenyl}propanoic acid]
< 7.00	CO/N=C(\COc1ccc(COc2ccc(C3CC3C(=O)O)cc2)cc1)c1ccc(C#N)cc1 (single isomer, unassigned) [Compound 79, Sodium 2-{4-[(4-{[(2Z)-2-(4-cyanophenyl)-2-(methoxyimino)ethyl]oxy}benzyl)oxy]phenyl}cyclopropanecarboxylate]
< 7.00	CO/N=C(\COc1ccc(COc2ccc(-c3c(C)noc3CC(=O)O)cc2)cc1)c1ccccc1 [Compound 69, (4-{4-[(4-{[(2Z)-2-(Methoxyimino)-2-phenylethyl]oxy}benzyl)oxy]phenyl}-3-methyl-1,2-oxazol-5-yl)acetic acid]
7.00 to 8.00	CO/N=C(\COc1ccc(COc2ccc(C(C#N)CC(=O)O)cc2)cc1)c1ccccc1 (single isomer, unassigned; (+)) [Compound 81, (+)-Sodium 3-cyano-3-{4-[(4-{[(2Z)-2-(methoxyimino)-2-phenylethyl]oxy}benzyl)oxy]phenyl}propanoate]
7.00 to 8.00	CO/N=C(/COc1ccc(COc2ccc(C(C#N)CC(=O)O)cc2)cc1)c1ccccc1 (racemic) [Compound 98, 3-Cyano-3-{4-[(4-{[(2E)-2-(methoxyimino)-2-phenylethyl]oxy}benzyl)oxy]phenyl}propanoic acid]
7.00 to 8.00	N#CC(CC(=O)O)c1ccc(OCc2ccc(OC/C(=N\OC3CCCCC3)c3ccccc3)cc2)cc1 (stereo not shown) [Compound 111, 3-Cyano-3-(4-{[4-({(2Z)-2-[(cyclohexyloxy)imino]-2-phenylethyl}oxy)benzyl]oxy}phenyl)propanoic acid]
< 7.00	CO/N=C(\COc1ccc(COc2ccc(/C(CC(=O)O)=N\OC3CCCCC3)cc2)cc1)c1ccccc1 [Compound 124, (3E,3Z)-3-[(Cyclohexyloxy)imino]-3-{4-[(4-{[(2Z)-2-(methoxyimino)-2-phenylethyl]oxy}benzyl)oxy]phenyl}propanoic acid]
> 8.00	CO/N=C(\COc1ccc(COc2ccc(C(C#N)CC(=O)O)cc2)cc1)c1cccc(F)c1 (stereo not shown) [Compound 55, Sodium 3-cyano-3-{4-[(4-{[(2Z)-2-(3-fluorophenyl)-2-(methoxyimino)ethyl]oxy}benzyl)oxy]phenyl}propanoate]
< 7.00	CO/N=C(\COc1ccc(COc2ccc(C(CC(=O)O)c3ccccc3)cc2)cc1)c1ccccc1 (stereo not shown) [Compound 112, 3-{4-[(4-{[(2Z)-2-(Methoxyimino)-2-phenylethyl]oxy}benzyl)oxy]phenyl}-3-phenylpropanoic acid]
< 7.00	C=CCO/N=C(/CC(=O)O)c1ccc(OCc2ccc(OCC(=NOC)c3ccccc3)cc2)cc1 (mixture of isomers) [Compound 121, (3Z)-3-{4-[(4-{[(2E,2Z)-2-(Methoxyimino)-2-phenylethyl]oxy}benzyl)oxy]phenyl}-3-[(prop-2-en-1-yloxy)imino]propanoic acid]
7.00 to 8.00	CO/N=C(\COc1ccc(COc2ccc(C3CC3C(=O)O)cc2)cc1)c1ccc(OC)cc1 (stereo not shown) [Compound 57, Sodium 2-{4-[(4-{[(2Z)-2-(methoxyimino)-2-(4-methoxyphenyl)ethyl]oxy}benzyl)oxy]phenyl}cyclopropanecarboxylate]
7.00 to 8.00	CO/N=C(\COc1ccc(COc2ccc([C@H]3C[C@@H]3C(=O)O)cc2)cc1)c1ccc(C#N)cc1 [Compound 64, (1S,2S)-2-{4-[(4-{[(2E,2Z)-2-(4-Cyanophenyl)-2-(methoxyimino)ethyl]oxy}benzyl)oxy]phenyl}cyclopropanecarboxylic acid]
7.00 to 8.00	CO/N=C(/COc1ccc(COc2ccc(C(C#N)CC(=O)O)cc2)cc1)c1ccccc1 (single isomer, unassigned) [Compound 100, 3-Cyano-3-{4-[(4-{[(2E)-2-(methoxyimino)-2-phenylethyl]oxy}benzyl)oxy]phenyl}propanoic acid]
7.00 to 8.00	CO/N=C(/COc1ccc(COc2ccc(C(C#N)CC(=O)O)cc2)cc1)c1ccccc1 (stereo not shown) [Compound 53, Sodium 3-cyano-3-{4-[(4-{[(2E)-2-(methoxyimino)-2-phenylethyl]oxy}benzyl)oxy]phenyl}propanoate]
